From patent US10532064B2, “Biophosphonate compounds and gamma delta T cell-mediated therapy for treating epstein-barr virus-associated disorders” (priority 2014, dated 2020)

Legend:
[1] = system: cytolytic activities of Vγ9Vδ2-T cells against EBV-LCL; test: Blocking of Vγ9Vδ2-T cell cytotoxicity against EBV-LCL by inhibitors and neutralizing antibodies; assay type: cell-based, human; settings: E:T 10:1; antibodies 10 μg/ml, CMA and Bcl-2 1 μg/ml
Experimental: FIG. 1A: Phenotypes of EBV-LCL and autologous normal human B cells. The white histograms represent MICA/B, Fas, FasL DR4 and DR5, and the gray histograms represent isotype controls. […] FIG. 1C, 1D, 1G: PAM-expanded Vγ9Vδ2 T cells purified by positive selection were co-cultured with autologous EBV-LCL or normal B cells at different E:T ratios (FIG. 1C) or an E:T ratio of 10:1 (FIGS. 1D and 1G) for 4-6 hours. FIG. 1D: The Vγ9Vδ2 T cells were directly co-cultured with or physically separated from autologous EBV-LCLs for 6 hours by using a transwell system. […] FIG. 1G: The perforin inhibitor CMA, granzyme B inactivator Bcl-2, anti-NKG2D (αNKG2D), anti-TRAIL (αTRAIL) and anti-FasL (αFasL) blocking antibodies, or their relevant isotype control (mouse IgG1, mIgG1) were used in co-culture of EBV-LCL and their autologous PAM-expanded Vγ9Vδ2 T cells. The cytotoxicity was shown as the percentage of inhibition relative to those without any treatment. All the data shown as mean±SEM are representative of four independent experiments. *p<0.05.

EBV-LPD [2] = test: Pamidronate in humanized mice reconstituted with Vγ9Vδ2-T-cell-depleted huPBMC; assay type: in vivo; settings: 10 mg/kg i.p. day 0, 7, 14, 21, 28
Source text: (§1) Vγ9Vδ2-T-cell-depleted huPBMC were obtained after double depletions of […] by positive selection with magnetic microbeads. Rag2^−/−γc^−/− mice were transplanted with whole huPBMC or Vγ9Vδ2-T-cell-depleted huPBMC from the same healthy human donor. […] Humanized mice reconstituted with whole huPBMC (PBMC) or Vγ9Vδ2-T-cell-depleted huPBMC (PBMC-γδ-T) were inoculated with EBV-LCL and treated with pamidronate or PBS according to the protocol shown in FIG. 8A. The survival (FIG. 9A), tumor incidence (FIG. 9B) and tumor volume (FIG. 9C) in humanized mice (PBMC+PAM, n=12; PBMC-γδ-T+PAM, n=7; PBMC-γδ-T+PBS, n=6) are shown.
All animal studies were approved and performed in compliance with the guidelines for the use of experimental animals by the Committee on the Use of Live Animals in the Teaching and Research, the University of Hong Kong. Humanized mice were generated in 4-5 weeks old male or female Rag2^−/−γc^−/− mice by reconstitution of EBV seropositive whole huPBMC or Vγ9Vδ2-T-cell-depleted huPBMC as we described before (Tu et al., 2011). […] The signs of disease (loss of activity, weight loss, ruffled hair, palpable tumors, and ascites) and survival of mice were monitored. Mice with more than 17 mm of diameter subcutaneous tumor were sacrificed and counted as dying. […]

Vγ9Vδ2-T cells = test: Expansion of Vγ9Vδ2-T cells from huPBMC in vitro with PAM and IL-2; assay type: cell-based, human
Experimental: The data are representative of 4 independent experiments. […] Data are representative of 4 independent experiments. […] Data are representative of 4 independent experiments.
Briefly, huPBMC were cultured in RPMI 1640 medium supplemented with 10% FBS. Pamidronate was added at day 0 and day 3 to a final concentration 9 μg/ml.
Human PBMCs were isolated from buffy coat preparation or anticoagulated peripheral blood by Ficoll-paque (GE Health life Science) gradient centrifugation. The PBMCs were cultured in 10% FBS-RPMI1640 supplemented with 15 ul of expansion reagent A; 25 ul of expansion reagent B was added from day 3 post culture. […] Data are representative for 4 independent experiments.

EBV-LPD [3] = test: Control of EBV-LPD by pamidronate in humanized mice (whole huPBMC); assay type: in vivo
Experimental: FIG. 8A: Protocol for the control of EBV-LPD by pamidronate (PAM) in humanized mice. Humanized mice were treated with PAM or PBS at day 0, 7, 14, 21, 28 after inoculation of EBV-LCL. FIG. 8B-8D: After treatment with PAM (n=8) or PBS (n=7), the survival (FIG. 8B), tumor incidence (FIG. 8C) and tumor volume (FIG. 8D) were measured at the indicated time.
as §1
All animal studies were approved and performed in compliance with the guidelines for the use of experimental animals by the Committee on the Use of Live Animals in the Teaching and Research, the University of Hong Kong. Humanized mice were generated in 4-5 weeks old male or female Rag2^−/−γc^−/− mice by reconstitution of EBV seropositive whole huPBMC or Vγ9Vδ2-T-cell-depleted huPBMC as we described before (Tu et al., 2011). […] Humanized mice or 6-8 week old Rag2^−/−γc^−/− mice were inoculated s.c. with EBV-LCL or EGFP-expressing EBV-LCL (0.1×10^6/mouse). […] For humanized mice, a human equivalent dose of PAM (10 mg/kg body weight; Pamisol; Hospira Austrilia Pty Led) was injected i.p. at indicated time. The mice treated with an equivalent volume of PBS were used as controls. The signs of disease (loss of activity, weight loss, ruffled hair, palpable tumors, and ascites) and survival of mice were monitored. Mice with more than 17 mm of diameter subcutaneous tumor were sacrificed and counted as dying. Otherwise, mice were followed for 100 or 170 days and then killed. All mice were examined for postmortem evidence of tumor. The tumors and organs were collected for histology and immunohistochemistry assays.
After inoculation with EBV-LCL (1×10^5/mouse) s.c., humanized mice were injected intraperitoneally (i.p.) with pamidronate (10 mg/kg body weight) at day 0, 7, 14, 21 and 28 post EBV-LCL inoculation (FIG. 8A). PBS-treated mice were used as controls.
Mice reconstituted with whole huPBMC or Vγ9Vδ2-T-cell-depleted huPBMC were inoculated with EBV-LCLs s.c. and injected with pamidronate (10 mg/kg body weight) i.p. at day 0, 7, 14, 21 and 28 post EBV-LCL inoculation.

[4] = post 20 days of in vitro culture in the presence of PAM and IL-2
[5] = Example 5, vs PBS-treated humanized mice
[6] = Example 6, humanized mice with whole huPBMC

Row | Molecule | effect on cytolytic activity of Vγ9Vδ2-T cells against EBV-LCL [1] | effects on survival, tumor occurrence and tumor volume (EBV-LPD [2]) | activation and expansion of Vγ9Vδ2-T cells (Vγ9Vδ2-T cells; huPBMC, PAM 9 μg/mL, rhIL-2 from day 3) | expansion of Vγ9Vδ2-T cells (mean) (Vγ9Vδ2-T cells; [4]) | expansion of Vγ9Vδ2-T cells (range) (Vγ9Vδ2-T cells; [4]) | percentage of Vγ9Vδ2-T cells within the PBMCs (mean) (Vγ9Vδ2-T cells; [4]) | percentage of Vγ9Vδ2-T cells within the PBMCs (range) (Vγ9Vδ2-T cells; post 20 days of in vitro culture in the presence of PAM and IL-2, baseline 1-5% (mean 3%), 4 experiments) | mice died within 100 days (EBV-LPD [3]; 10 mg/kg i.p. day 0, 7, 14, 21, 28, 1 out of 8 mice, all PBS mice died) | mice with subcutaneous tumor growth within 100 days (EBV-LPD [3]; 10 mg/kg i.p. day 0, 7, 14, 21, 28, 3 out of 8 mice) | frequency of Vγ9Vδ2-T cells in the peripheral blood (EBV-LPD [3]; 10 mg/kg i.p., vs PBS) | persistence of Vγ9Vδ2-T cells in the peripheral blood (EBV-LPD [3]; EBV-LCL-grafted humanized mice, pamidronate-treated) | survival (EBV-LPD [3]; Example 5, PAM n=8 vs PBS n=7) | tumor incidence (EBV-LPD [3]; [5]) | tumor volume (EBV-LPD [3]; [5]) | tumor occurrence (EBV-LPD [3]; [6]) | tumor volume (EBV-LPD [3]; [6]) | survival (EBV-LPD [3]; Example 6, humanized mice with whole huPBMC, n=12) | tumor metastasis in other organs at necropsy (EBV-LPD [3]; day 100, surviving 7 mice)
1 | C/C=C/[C@H]1O[C@@](O)([C@@H](C)[C@H](O)[C@H](C)[C@H]2OC(=O)/C(OC)=C/C(C)=C/[C@@H](C)[C@@H](O)[C@@H](CC)[C@@H](O)[C@H](C)C/C(C)=C/C=C/[C@@H]2OC)C[C@@H](O[C@H]2C[C@@H](O)[C@H](OC(N)=O)[C@@H](C)O2)[C@@H]1C [CMA, concanamycin A] | strongly inhibited | – | – | – | – | – | – | – | – | – | – | – | – | – | – | – | – | –
2 | NCCC(O)(P(=O)(O)O)P(=O)(O)O [pamidronate] | – | had no such effects | induced selective activation and expansion | 198 fold | 156-309 fold | 82% | 67-95% | 12.5% | 37.5% | significantly increased | up to 98 days | significantly prolonged | significantly lower tumor incidence | reduced tumor volume | reduced tumor occurrence | decreased tumor volume | significantly prolonged survival | failed to show any evidence of tumor metastasis
3 | Bcl-2: granzyme B inactivator Bcl-2 (R&D Systems) | strongly inhibited | – | – | – | – | – | – | – | – | – | – | – | – | – | – | – | – | –
